The target in the assay is T1, choline kinase beta (CKβ) (Homo sapiens, UniProt Q9Y259).
T1 construct: gene CHKB; recombinant CKβ, in vitro phosphorylated by PKA (Ser39/Ser40)
Nature of the assay: PK-LDH coupled enzyme assay, IC50 at […] choline converted to Ki. The format is biochemical.

For orientation: Ki means a measure of affinity in units of concentration, obtained from inhibition or displacement. A high value points to weaker binding.

T1 sequence (Q9Y259 2-395): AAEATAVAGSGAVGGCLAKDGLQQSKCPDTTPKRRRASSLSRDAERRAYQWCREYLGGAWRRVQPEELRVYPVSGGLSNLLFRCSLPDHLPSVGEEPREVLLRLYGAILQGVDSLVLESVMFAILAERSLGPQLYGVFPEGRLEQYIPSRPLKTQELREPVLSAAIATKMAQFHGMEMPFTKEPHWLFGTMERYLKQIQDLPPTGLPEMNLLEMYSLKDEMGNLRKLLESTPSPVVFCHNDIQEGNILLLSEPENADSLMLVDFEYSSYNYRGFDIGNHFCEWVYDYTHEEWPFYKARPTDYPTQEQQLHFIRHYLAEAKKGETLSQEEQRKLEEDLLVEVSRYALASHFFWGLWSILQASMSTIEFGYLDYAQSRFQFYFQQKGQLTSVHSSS

The compound `C[N+]1(C)CCOC(O)(c2ccc(-c3ccc(C4(O)C[N+](C)(C)CCO4)cc3)cc2)C1` (stereo not shown) [HC-3, Hemicholinium-3] showed an inhibition constant (Ki) of 4.7 µM.

The record behind these values is paper PMC4858151, “Phosphorylation of Human Choline Kinase Beta by Protein Kinase A: Its Impact on Activity and Inhibition” (PLoS ONE, 2016).
